Assay results as given in patent publication US11911383B2, “Oral solution formulation” (Pfizer Inc., priority 2018, dated 2024).
Values after ≈ are worked out from the molar mass of the structure shown. Where two headings read alike, the source gives them in different places.

Legend:
[1] = Effect of pH on the oral aqueous solution (degradation, precipitation); assay type: physicochemical; conditions: pH values above about 4.3
Excerpt: In some embodiments, the oral aqueous solution has a pH of from about 3.0 to about 4.5. In some embodiments, the oral aqueous solution has a pH of from about 3.5 to about 4.3. In frequent embodiments, the oral aqueous solution has a pH of from about 3.6 to about 4.0. In some such embodiments, the oral aqueous solution has a pH of about 3.8.

[2] = Solubility of palbociclib (free base) in various aqueous buffers, with total degradation by HPLC; assay type: physicochemical; conditions: for solubility at 28 h: aqueous buffer solution, 25 °C, thermodynamic from solid
Procedure: The solubility of palbociclib (free base) was assessed in various aqueous buffer solutions and mixtures thereof. The buffers were prepared at concentrations ranging from 0.01 M to 0.2 M and at pH values ranging from 2.0 to 8.4. Samples were prepared by weighing and transferring approximately 200 mg of palbociclib to 3-4 mL of the buffer. The solutions were vortexed and placed in a temperature cycle chamber for 8 hours at 25° C., followed by 12 hours at 40° C., then 8 hours at 25° C. The resulting solutions were then analyzed by HPLC to determine the solubility (mg/mL) of palbociclib in the buffer. […] NT=Not tested.

[3] = Sample P: 0.032M Malic Acid, pH NT
[4] = Sample Q: 0.02M Malic Acid, pH NT
[5] = Sample R: 0.01M Malic Acid, pH NT
[6] = aqueous buffer systems of lactic acid and malic acid

Which results are given for `CC(=O)c1c(C)c2cnc(Nc3ccc(N4CCNCC4)cn3)nc2n(C2CCCC2)c1=O` [palbociclib, 6-acetyl-8-cyclopentyl-5-methyl-2-(5-piperazin-1-yl-pyridin-2-ylamino)-8H-pyrido[2,3-d]pyrimidin-7-one]?
Precipitation of the API [1]: Some precipitation; Total Degradation ([2]; Sample A: 0.2M Citric Acid, pH 2.02, new HPLC peaks greater than 0.05%): 0.52%; Total Degradation ([2]; Sample B: 0.2M Malic Acid, pH 2.00): 0.20%; Total Degradation ([2]; Sample C: 0.2M DL Lactic Acid, pH 2.07): 0%; Total Degradation ([2]; Sample D: 0.2M Succinic acid, pH 2.42): 0.66%; Total Degradation ([2]; Sample E: 0.2M Sodium succinate, pH 8.38): 0%; Total Degradation ([2]; Sample F: 0.2M Sodium dihydrogen phosphate dihydrate, pH 2.01): 1.27%; Total Degradation ([2]; Sample G: 9.5 mL D + 0.5 mL E, pH 3.15): 0.29%; Total Degradation ([2]; Sample H: 9 mL D + 1 mL E, pH 3.45): 3.03%; Total Degradation ([2]; Sample I: 8 mL D + 2 mL E, pH 3.93): 3.43%; Total Degradation ([2]; Sample J: 5 mL D + 5 mL E, pH 4.62): 1.31%; Total Degradation ([2]; Sample K: 5 mL D + 10 mL E, pH 4.98): 1.08%; Total Degradation ([2]; Sample L: 5 mL D + 15 mL E, pH 5.25): 1.46%; Total Degradation ([2]; Sample M: 0.1M DL Lactic Acid, pH 2.31): 0.00%; Total Degradation ([2]; Sample N: 0.05M DL Lactic Acid, pH 2.46): 0.00%; Total Degradation ([2]; Sample O: 0.01M DL Lactic Acid, pH 2.83): 0.19%; Solubility [2, 3]: 530 µg/mL (≈ 1.18 mM); Total Degradation [2, 3]: 1.66%; Solubility [2, 4]: 600 µg/mL (≈ 1.34 mM); Total Degradation [2, 4]: 1.62%; Solubility [2, 5]: 600 µg/mL (≈ 1.34 mM); Total Degradation [2, 5]: 1.63%; solubility at 28 h ([2]; pH 2, aqueous buffer, Sample B: 0.2M Malic Acid, pH 2.00, read-out: Solubility): 15700 µg/mL (≈ 35.1 mM); solubility at 28 h ([2]; pH 2.01, aqueous buffer, Sample F: 0.2M Sodium dihydrogen phosphate dihydrate, pH 2.01, read-out: Solubility): 650 µg/mL (≈ 1.45 mM); solubility at 28 h ([2]; pH 2.02, aqueous buffer, Sample A: 0.2M Citric Acid, pH 2.02, temperature cycle 25/40/25° C., read-out: Solubility): 4000 µg/mL (≈ 8.94 mM); solubility at 28 h ([2]; pH 2.07, aqueous buffer, 0.2M DL lactic acid buffer, read-out: Amount dissolved with solution still clear (saturated solubility not yet reached)): > 45700 µg/mL; solubility at 28 h ([2]; pH 2.07, aqueous buffer, Sample C: 0.2M DL Lactic Acid, pH 2.07, read-out: Solubility): 45700 µg/mL (≈ 102 mM); solubility at 28 h ([2]; pH 2.31, aqueous buffer, Sample M: 0.1M DL Lactic Acid, pH 2.31, read-out: Solubility): 36300 µg/mL (≈ 81.1 mM); solubility at 28 h ([2]; pH 2.42, aqueous buffer, Sample D: 0.2M Succinic acid, pH 2.42, read-out: Solubility): 1100 µg/mL (≈ 2.46 mM); solubility at 28 h ([2]; pH 2.46, aqueous buffer, Sample N: 0.05M DL Lactic Acid, pH 2.46, read-out: Solubility): 16200 µg/mL (≈ 36.2 mM); solubility at 28 h ([2]; pH 2.83, aqueous buffer, Sample O: 0.01M DL Lactic Acid, pH 2.83, read-out: Solubility): 3800 µg/mL (≈ 8.49 mM); solubility at 28 h ([2]; pH 3.15, aqueous buffer, Sample G: 9.5 mL D + 0.5 mL E (succinic acid/sodium succinate), pH 3.15, read-out: Solubility): 1700 µg/mL; solubility at 28 h ([2]; pH 3.45, aqueous buffer, Sample H: 9 mL D + 1 mL E, pH 3.45, read-out: Solubility): 340 µg/mL; solubility at 28 h ([2]; pH 3.93, aqueous buffer, Sample I: 8 mL D + 2 mL E, pH 3.93, read-out: Solubility): 67 µg/mL; solubility at 28 h ([2]; pH 4.62, aqueous buffer, Sample J: 5 mL D + 5 mL E, pH 4.62, read-out: Solubility): 68 µg/mL; solubility at 28 h ([2]; pH 4.98, aqueous buffer, Sample K: 5 mL D + 10 mL E, pH 4.98, read-out: Solubility): 55 µg/mL; solubility at 28 h ([2]; pH 5.25, aqueous buffer, Sample L: 5 mL D + 15 mL E, pH 5.25, read-out: Solubility): 91 µg/mL; solubility at 28 h ([2]; pH 8.38, aqueous buffer, Sample E: 0.2M Sodium succinate, pH 8.38, read-out: Solubility): 4 µg/mL (≈ 0.00894 mM); Degradation (in words) [2, 6]: minimal degradation; Solubility (in words) [2, 6]: significantly enhanced solubility
